Like-named read-outs stand apart in the source and are kept apart here.
How the values were obtained:
[1] = Stability of mixed-ligand complex in methanol (1H NMR in CD3OD); assay type: physicochemical
From the text: ^1H NMR (CD3OD, ppm, 500 MHz, standard: δ 3.31 (solvent residual peak)): δ 9.76 (dd, J = 5.2 Hz, 0.87 Hz, 2H, phen-H^2,9), δ 8.99 (dd, J = 8.3 Hz, 1.2 Hz, 2H, phen-H^4,7), δ 8.49 (d, J = 5.2 Hz, 2H, Py-H^2,6), δ 8.40 (dd, J = 8.2 Hz, 5.2 Hz, 2H, phen-H^3,8), δ 8.25 (s, 2H, phen-H^5,6), δ 7.91 (tt, J = 7.7 Hz, 1.4 Hz, 1H, Py-H^4), δ 7.46 (t, J = 7.1 Hz, 2H, Py-H^3,5), δ 1.75 (s, 15H, Cp*-H^methyl). Deuteration of Cp* is visible and highlighted in the spectrum in Figure S9. A small amount (<5%) of dissociated complex is visible in equilibrium with the complex, indicating the low stability of the mixed-ligand complex even in methanol.

[2] = Formation constants of mixed-ligand half-sandwich complexes (UV-vis and 1H NMR); assay type: physicochemical; conditions: aqua complex + monodentate ligand; I = 0.10 M (KCl); t = 25.0 °C; UV-vis and 1H NMR
[3] = Fractions of mixed-ligand complexes at 1:1 ratio at pH 6.0 and 7.4 by 1H NMR (screening of monodentate ligands); assay type: physicochemical; conditions: 1H NMR
Method: In the preliminary studies, the co-ordination ability of the monodentate ligands to the [RhCp*(en)(H2O)]^2+, [RhCp*(phen)(H2O)]^2+, and [RhCp*(8HQH-1)(H2O)]^+ complexes was tested (Chart 2). The samples contained the aqua complex and the monodentate ligand in a 1:1 ratio and were buffered at pH = 6.0 and pH = 7.4. For an ideal drug candidate, all of the monodentate ligand would be bound at pH 7.4; thus, the mixed-ligand complex would be present exclusively, which dissociates completely at pH 6.0.
Figure 1 Fractions of the formed mixed-ligand [RhCp*(N,N/O)(N)]^2+/+ complexes at c(complex):c(monodentate ligand) = 1:1 ratio measured at pH = 6.0 (full bars) and 7.4 (checkered bars). Fractions were determined by the integration of the peaks in the ^1H NMR spectra. The percentage values above the columns show the difference in the fractions of the mixed-ligand complex at the two pH values. {c([RhCp*(phen)(H2O)]^2+) = c([RhCp*(en)(H2O)]^2+) = 1 mM; c([RhCp*(8HQH−1)(H2O)]^+) = 500 μM; 10% D2O; pH = 6.0 or 7.4 (PBS’); t = 25.0 °C}. […] The percentages were assigned to (N,N) = en, (N,N) = phen and (N,O) = 8HQH-1 by bar colour only.

[4] = tested on: S. aureus ATCC 25923 (methicillin-susceptible); test: Antibacterial assay, MIC in 96-well plates at different pH; assay type: cell-based
How it was run: (§1)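 Broth microdilution MIC per CLSI in Mueller Hinton broth, with overnight culture diluted 10,000-fold as inoculum. Each strain and compound tested at pH 5, 6, 7 and 8, in triplicate.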

S. aureus 272123 (MRSA) = test: as above; assay type: cell-based
How it was run: as §1

[5] = tested on: E. coli 32313 (resistant); test: as above; assay type: cell-based
How it was run: as §1

[6] = tested on: E. coli ATCC 25922 (sensitive); test: as above; assay type: cell-based
How it was run: as §1

[7] = Computed fractions of mixed-ligand complexes as function of pH from formation constants; assay type: physicochemical; conditions: 100 μM; ratio 1:1
Method: With the help of these formation constants, the extent of complex formation can be estimated for a chosen monodentate ligand—complex chemical system under the desired conditions (concentration and pH). Figure 6 and Figure S25 show the computed fractions of the formed, mixed-ligand complexes between pH = 5 and 8 and at a 100 μM concentration (metal complex-to-monodentate ligand ratio = 1:1). The fraction at pH = 7.4 and at pH 6.0–6.7 were compared to each other.
As an example, the fractions of [Ru(p-cym)(8HQH−1)(mim)]^+ are shown in Figure S26 with decreasing concentration.
Formation constants shown in Figure 5 and in Table S2 were used for the calculation. Percentages indicate the fraction at pH = 7.4 (blue line) and in the range between pH = 6.0–6.7 (pink rectangle: possible pH of tumor microenvironment during acidosis).

[8] = Proton dissociation constants of the coordinated water in [M(arene)(N,N/O)(H2O)]2+/+ complexes (UV-vis titration); conditions: I = 0.10 M (KCl); t = 25.0 °C; UV-vis
From the text: The proton dissociation of the aqua ligand in the [M(arene)(N,N/O)(H2O)]^2+/+ complexes (Scheme 2) results in the inert mixed-hydroxido species (general formula: [M(arene)(N,N/O)(OH)]^+/0).

[9] = Kinetics of mixed-ligand complex formation followed by UV-vis; assay type: physicochemical; conditions: complex:1-methylimidazole 1:2, pH 7.4 (phen, Figure 2) or 5.94 (en, Figure S23)
Method: Firstly, the reactions were followed by UV-vis spectrometry, and significant changes in the charge transfer bands were observed. Based on these preliminary measurements, the waiting time needed prior to measurement was determined. Generally, the reaction was faster for the RhCp* complexes than for the Ru(p-cym) analogs. […] The [Ru(p-cym)(en/phen)(H2O)]^2+ complexes reached chemical equilibrium within only hours, while the reaction between 1-methylimidazole and [RhCp*(phen)(H2O)]^2+ (Figure 2) or [RhCp*(en)(H2O)]^2+ (Figure S23) was completed within 90 min. However, the fractions of the mixed-ligand complexes cannot be determined from these spectral changes in the chemical equilibrium; thus, further experiments were carried out to determine the formation constants.
Figure 2 (a) Time-dependent UV-vis spectra of the c([RhCp*(phen)(H2O)]^2+):c(1-methylimidazole) = 1:2 mixture under physiological conditions (pH = 7.4 (PBS’ buffer)). (b) Time dependence of the absorbance values at 400 nm. {c([RhCp*(phen)(H2O)]^2+) = 200 μM; c(1-methylimidazole) = 400 μM; pH = 7.40 (PBS’); t = 25 °C; ℓ = 1 cm}.

[10] = tested on: Colo320 human colon adenocarcinoma cell line (doxorubicin-resistant); test: MTT assay, cytotoxicity at pH 6 and 7; assay type: cell-based; conditions: Homo sapiens, COLO 320, Colo320, 72 h incubation, read-out: IC50
How it was run: (§2)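 Colo205 and Colo320 cells at 1 × 10^4 cells/well in RPMI 1640 (10% FBS, HEPES) adjusted to pH 6.0 or 7.0, exposed to two-fold serial dilutions of freshly prepared complexes for 72 h at 37 °C. MTT read at 540/630 nm after SDS solubilisation. Values from sigmoidal dose–response fits, triplicates.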

[11] = tested on: Colo205 human colon adenocarcinoma cell line (doxorubicin-sensitive); test: MTT assay, cytotoxicity at pH 6 and 7; assay type: cell-based; conditions: Homo sapiens, COLO 205, Colo205, 72 h incubation, read-out: IC50
How it was run: as §2

[12] = cited from earlier work
[13] = Release of pyridine ligand from synthesized complex followed by 1H NMR; assay type: physicochemical
From the text: The rate of the release of the monodentate ligand from the synthesized mixed-ligand complex is also of interest. Although a mixed-ligand complex with low stability should release its monodentate ligand easily, kinetic inertness has a major effect on reaching the equilibrium state. In contrast to their non-organometallic octahedral counterparts, half-sandwich Ru(II) and Rh(III) complexes have faster ligand exchange reactions.

Method for physchem: pH-potentiometric measurements were performed to determine the protonation constants (Kp) of the ligands and the concentration of the stock solutions. These measurements were carried out at 25.0 ± 0.1 °C in water in a pH range between 2.0 and 11.5, titrating with carbonate-free KOH solution (0.10 M). […] A Thermo Scientific 0710A0 benchtop pH meter (Waltham, MA, USA), equipped with a Metrohm combined electrode (type 6.0234.100) and a Metrohm 665 Dosimat burette (Metrohm, Herisau, Switzerland) was used for these measurements. […] The initial volume of the samples was 10.0 mL, and the ligand concentration was 2.0 mM in the samples. Samples were degassed by bubbling purified argon prior to and during the measurements. The computer program Hyperquad2013 [28] was utilized to determine the protonation constants of the ligands and concentration.
The protonation constants (Kp) were determined by pH-potentiometric and UV-vis spectrophotometric titrations in the presence of 0.1 M KCl (see Table 1 and Figures S21 and S22 for examples).

## Cc1c(C)c(C)[c-](C)c1C.O=S(=O)([O-])C(F)(F)F.O=S(=O)([O-])C(F)(F)F.[Rh+3].c1ccncc1.c1cnc2c(c1)ccc1cccnc12 [Complex 4]
[1]
  dissociated complex in equilibrium with the complex: < 5%

## Cc1c(C)c(C)[c-](C)c1C.Cn1ccnc1.NCCN.[Rh+3] [[RhCp*(en)(mim)]^2+]
[2]
  Formation constant logK of mixed-ligand complex: 4.2 ± 0.1
[3]; pH 6.0, PBS'
  Fraction of mixed-ligand complex: 52%
[3]; pH 7.4, PBS'
  Fraction of mixed-ligand complex: 82%

## Cc1c(C)c(C)[c-](C)c1C.Cn1ccnc1.[O-]c1cccc2cccnc12.[Rh+3] [[RhCp*(8HQH−1)(mim)]^+]
[4]; S. aureus sensitive, pH 7, after one day, read-out: MIC
  MIC: 12.5 µM
[4]; S. aureus sensitive, pH 8, after one day, read-out: MIC
  MIC: 12.5 µM
S. aureus 272123 (MRSA); pH 5, after one day, read-out: MIC
  MIC: 50 µM
S. aureus 272123 (MRSA); pH 6, after one day, read-out: MIC
  MIC: 25 µM
S. aureus 272123 (MRSA); pH 7, after one day, read-out: MIC
  MIC: 12.5 µM
S. aureus 272123 (MRSA); pH 8, after one day, read-out: MIC
  MIC: 12.5 µM
[5]; E. coli resistant, pH 5, after one day, read-out: MIC
  MIC: > 100 µM
[5]; E. coli resistant, pH 6, after one day, listed as [RhCp*(8HQH-1)Cl] +mim, read-out: MIC
  MIC: >100 µM
[5]; E. coli resistant, pH 7, after one day, listed as [RhCp*(8HQH-1)Cl] +mim, read-out: MIC
  MIC: >100 µM
[5]; E. coli resistant, pH 8, after one day, read-out: MIC
  MIC: > 100 µM
[6]; E. coli sensitive, pH 5, after one day, read-out: MIC
  MIC: > 100 µM
[6]; E. coli sensitive, pH 6, after one day, listed as [RhCp*(8HQH-1)Cl] +mim, read-out: MIC
  MIC: >100 µM
[6]; E. coli sensitive, pH 7, after one day, listed as [RhCp*(8HQH-1)Cl] +mim, read-out: MIC
  MIC: >100 µM
[6]; E. coli sensitive, pH 8, after one day, read-out: MIC
  MIC: > 100 µM
[2]
  Formation constant logK of mixed-ligand complex: 4.7 ± 0.2
[7]
  difference in computed fraction (dissociated) when pH decreases from 7.4 to 6.0: 13%

## Cc1c(C)c(C)[c-](C)c1C.O.[Rh+3].c1cnc2c(c1)ccc1cccnc12 [[RhCp*(phen)(H2O)]2+]
[8]
  pKa of the coordinated water molecule: 10.05±0.01
[9]
  time to completion of the reaction with 1-methylimidazole: ≤ 90 min

## Cc1c(C)c(C)[c-](C)c1C.NCCN.O.[Rh+3] [[RhCp*(en)(H2O)]2+]
[8]
  pKa of the coordinated water molecule: 10.6±0.1
[9]
  time to completion of the reaction with 1-methylimidazole: ≤ 90 min

## Cn1ccnc1 [mim, 1-methylimidazole, reference compound]
physchem
  pKa: 7.14 ± 0.01
[10]; pH 6
  IC50: > 100 µM
[10]; pH 7
  IC50: > 100 µM
[11]; pH 6
  IC50: > 100 µM
[11]; pH 7
  IC50: > 100 µM
[4]; Staphylococcus aureus, ATCC25923, 24 h, S. aureus sensitive, pH 7, after one day, read-out: MIC
  MIC: > 100 µM
[4]; Staphylococcus aureus, ATCC25923, 24 h, S. aureus sensitive, pH 8, after one day, read-out: MIC
  MIC: > 100 µM
[4]; Staphylococcus aureus, ATCC25923, any of the bacterial strains, S. aureus, read-out: MIC (no antibacterial effect)
  MIC: > 100 µM
S. aureus 272123 (MRSA); Staphylococcus aureus, 24 h, pH 5, after one day, read-out: MIC
  MIC: > 100 µM
S. aureus 272123 (MRSA); Staphylococcus aureus, 24 h, pH 6, after one day, read-out: MIC
  MIC: > 100 µM
S. aureus 272123 (MRSA); Staphylococcus aureus, 24 h, pH 7, after one day, read-out: MIC
  MIC: > 100 µM
S. aureus 272123 (MRSA); Staphylococcus aureus, 24 h, pH 8, after one day, read-out: MIC
  MIC: > 100 µM
S. aureus 272123 (MRSA); Staphylococcus aureus, any of the bacterial strains, read-out: MIC (no antibacterial effect)
  MIC: > 100 µM
[5]; Escherichia coli, 24 h, E. coli resistant, pH 5, after one day, read-out: MIC
  MIC: > 100 µM
[5]; Escherichia coli, 24 h, E. coli resistant, pH 6, after one day, read-out: MIC
  MIC: > 100 µM
[5]; Escherichia coli, 24 h, E. coli resistant, pH 7, after one day, read-out: MIC
  MIC: > 100 µM
[5]; Escherichia coli, 24 h, E. coli resistant, pH 8, after one day, read-out: MIC
  MIC: > 100 µM
[5]; Escherichia coli, any of the bacterial strains, resistant E. coli, read-out: MIC (no antibacterial effect)
  MIC: > 100 µM
[6]; Escherichia coli, ATCC25922, 24 h, E. coli sensitive, pH 5, after one day, read-out: MIC
  MIC: > 100 µM
[6]; Escherichia coli, ATCC25922, 24 h, E. coli sensitive, pH 6, after one day, read-out: MIC
  MIC: > 100 µM
[6]; Escherichia coli, ATCC25922, 24 h, E. coli sensitive, pH 7, after one day, read-out: MIC
  MIC: > 100 µM
[6]; Escherichia coli, ATCC25922, 24 h, E. coli sensitive, pH 8, after one day, read-out: MIC
  MIC: > 100 µM
[6]; Escherichia coli, ATCC25922, any of the bacterial strains, E. coli, read-out: MIC (no antibacterial effect)
  MIC: > 100 µM

## c1ccc2[nH]cnc2c1 [benzimidazole]
physchem; water with 0.10 M KCl
  pKa: 5.44 ± 0.01
[12]
  logKp (= pKa), literature data: 5.54 [44]

## NCc1ccccc1 [benzylamine]
physchem; water with 0.10 M KCl
  pKa: 9.42 ± 0.01

## Cc1c(C)c(C)[c-](C)c1C.NCCN.O=S(=O)([O-])C(F)(F)F.O=S(=O)([O-])C(F)(F)F.[Rh+3].c1ccncc1 [Complex 2]
[13]; pH 6.0, after 5 min
  monodentate ligand dissociated: ~ 75%
[13]; pH 6.0, after half an hour
  released monodentate ligand at chemical equilibrium: ~ 94%
